Measured values from patent US4002660A, “S-(4-Chlorophenyl)-3-aryl-3-hydroxypropanethioates” (Morton-Norwich Products, Inc., priority 1976, dated 1977).
≈ marks a conversion by molar mass, not a printed value.

How the values were obtained:
Assay in all cases: antibacterial potency, serial dilution technique (MIC)
Assay type in all cases: cell-based
S. aureus = settings: Staphylococcus aureus, read-out: Minimum Inhibitory Concentration
Co. liquefaciens = settings: read-out: Minimum Inhibitory Concentration
He. Vaginalis = settings: Gardnerella vaginalis, read-out: Minimum Inhibitory Concentration
St. agalactiae = settings: Streptococcus agalactiae, read-out: Minimum Inhibitory Concentration
P. multocida = settings: Pasteurella multocida, read-out: Minimum Inhibitory Concentration

Structure (SMILES)	MIC (S. aureus)	MIC (Co. liquefaciens)	MIC (He. Vaginalis)	MIC (St. agalactiae)	MIC (P. multocida)
O=C(CC(O)c1ccccc1)Sc1ccc(Cl)cc1 (stereo not drawn) [I, S-(4-Chlorophenyl)-3-Hydroxy-3-phenylpropanethioate]	6.25 µg/mL (≈ 21.3 µM)	6.25 µg/mL (≈ 21.3 µM)	12.5 µg/mL (≈ 42.7 µM)	3.13 µg/mL (≈ 10.7 µM)	6.25 µg/mL (≈ 21.3 µM)
Cc1ccc(C(O)CC(=O)Sc2ccc(Cl)cc2)cc1 (stereo not drawn) [II, S-(4-Chlorophenyl) 3-Hydroxy-3-(4-methylphenyl)propanethioate]	12.5 µg/mL (≈ 40.7 µM)	12.5 µg/mL (≈ 40.7 µM)	3.1 µg/mL (≈ 10.1 µM)	3.13 µg/mL (≈ 10.2 µM)	3.13 µg/mL (≈ 10.2 µM)
CCc1ccc(C(O)CC(=O)Sc2ccc(Cl)cc2)cc1 (stereo not drawn) [III, S-(4-Chlorophenyl) 3-(4-Ethylphenyl)-3-hydroxypropanethioate]	6.25 µg/mL (≈ 19.5 µM)	6.25 µg/mL (≈ 19.5 µM)	6.25 µg/mL (≈ 19.5 µM)	3.13 µg/mL (≈ 9.76 µM)	6.25 µg/mL (≈ 19.5 µM)
O=C(CC(O)c1ccc(Cl)cc1)Sc1ccc(Cl)cc1 (stereo not drawn) [IV, S-(4-Chlorophenyl) 3-(4-Chlorophenyl)-3-hydroxypropanethioate]	12.5 µg/mL (≈ 38.2 µM)	6.25 µg/mL (≈ 19.1 µM)	3.1 µg/mL (≈ 9.47 µM)	6.25 µg/mL (≈ 19.1 µM)	6.25 µg/mL (≈ 19.1 µM)
O=C(CC(O)c1ccc(Cl)cc1Cl)Sc1ccc(Cl)cc1 (stereo not drawn) [V, S-(4-Chlorophenyl) 3-(2,4-Dichlorophenyl)-3-hydroxypropanethioate]	6.25 µg/mL (≈ 17.3 µM)	3.1 µg/mL (≈ 8.57 µM)	12.5 µg/mL (≈ 34.6 µM)	12.5 µg/mL (≈ 34.6 µM)	25 µg/mL (≈ 69.1 µM)
O=C(CC(O)c1ccc(Cl)c(Cl)c1)Sc1ccc(Cl)cc1 (stereo not drawn) [VI, S-(4-Chlorophenyl) 3-(3,4-Dichlorophenyl)-3-hydroxypropanethioate]	25 µg/mL (≈ 69.1 µM)	12.5 µg/mL (≈ 34.6 µM)	25 µg/mL (≈ 69.1 µM)	12.5 µg/mL (≈ 34.6 µM)	25 µg/mL (≈ 69.1 µM)
Cc1ccc(C(O)CC(=O)Sc2ccc(Cl)cc2)cc1Cl (stereo not drawn) [VII, S-(4-Chlorophenyl) 3-(3-Chloro-4-methylphenyl)-3-hydroxypropanethioate]	12.5 µg/mL (≈ 36.6 µM)	12.5 µg/mL (≈ 36.6 µM)	25 µg/mL (≈ 73.3 µM)	12.5 µg/mL (≈ 36.6 µM)	25 µg/mL (≈ 73.3 µM)
